# Measurements taken from US20230123488A1, “STABLE TOPICAL TETRACYCLINE COMPOSITIONS” (VYNE THERAPEUTICS INC., priority 2017, published 2023).
# Structures can show the parent of a compound that is named as a salt. Where two headings read alike, the source gives them in different places.
# Tests used:
# [1] = Doxycycline solubility in various solvents; type: physicochemical; conditions: supernatant
# Experimental: Saturated solutions of doxycycline hyclate are prepared by stirring doxycycline in approximately 20 g of solvents for over 48 hours at room temperature. By the end of stirring, all samples have solids in equilibrium with liquids. The samples are filtered and subjected to quantification using UPLC.
# Each composition was subjected to centrifugation and the supernatant with dissolved active agent analyzed. The weight /weight percentage of active agent found dissolved in each solvent is shown below: […]
# [2] = Cyclomethicone 5 NF, Diisopropyl adipate, Hydrogenated Castor Oil, MCT Oil, cited from earlier work
# [3] = Compatibility test of active agent with excipients; type: physicochemical; conditions: excipients: soybean oil, paraffin 57-64, polyvinyl alcohol and hydroxypropylcellulose (klucel)
# Experimental: Compatibility tests were performed as described in US8,343,945 and US8,945,516, which are incorporated here by reference with respect to the excipients and their compatibility described herein. […] The mixture was assessed for active agent degradation and optionally for color change.
# [4] = in Isopropyl myristate, room temperature, 72 hours
# [5] = in Oleic acid, room temperature, 72 hours
Compound,"Doxycycline content (solubility) [1, 4]","Doxycycline content (solubility) [1, 5]","Compatibility with excipients ([2]; excipients: Aerosil, Almond oil, Avocado oil, Beeswax, Behenyl alcohol, Calendula oil, Castor oil, Cetearyl octanoate, Cetostearyl alcohol, Cetyl alcohol, Cocoglycerides, Coconut oil, Gelled mineral oil, Grape seed oil, Hard Fat, Isododecane, isopropyl myristate, Isostearyl alcohol, Jojoba oil, Menthol, Myrist)",Compatibility with additional excipients [3],"Doxycycline content (solubility) ([1]; in 1,3 propane-di-ol, room temperature, 72 hours)","Doxycycline content (solubility) ([1]; in Dimethyl isosorbide, excess doxycycline hyclate stirred at room temperature for 72 hours)","Doxycycline content (solubility) ([1]; in Dimethyl sulfoxide, room temperature, 72 hours)","Doxycycline content (solubility) ([1]; in Ethanol, room temperature, 72 hours)","Doxycycline content (solubility) ([1]; in Glycerin, room temperature, 72 hours)","Doxycycline content (solubility) ([1]; in Hexylene glycol, room temperature, 72 hours)","Doxycycline content (solubility) ([1]; in Isopropanol, room temperature, 72 hours)","Doxycycline content (solubility) ([1]; in Oleyl alcohol, room temperature, 72 hours)","Doxycycline content (solubility) ([1]; in Propylene carbonate, room temperature, 72 hours)","Doxycycline content (solubility) ([1]; in Propylene glycol, room temperature, 72 hours)","Doxycycline content (solubility) ([1]; in Transcutol, room temperature, 72 hours)","Compatibility with excipients ([2]; excipients: Cetearyl octanoate, Ethanol 95%, Hexylene glycol, Isostearic acid, Mineral Oil, Myristyl alcohol, Oleyl alcohol, PEG 100 Stearate, PPG-15 Stearyl Ether, Sorbitan Monostearate (SPAN 60), Stearyl alcohol)"
"C[C@H]1c2cccc(O)c2C(=O)C2=C(O)[C@]3(O)C(=O)C(C(N)=O)=C(O)[C@@H](N(C)C)[C@@H]3[C@@H](O)[C@@H]21 [doxycycline, Doxycycline]",Not detected,Not detected,,,,,,,,,,,,,,
"CN(C)c1ccc(O)c2c1C[C@H]1C[C@H]3[C@H](N(C)C)C(O)=C(C(N)=O)C(=O)[C@@]3(O)C(O)=C1C2=O [minocycline HCL, Minocycline HCL]",,,compatible,compatible,,,,,,,,,,,,
Doxycycline Hyclate [Dox hyclate],Not detected,Not detected,,,21.56 % w/w,4.12 % w/w,25.34 % w/w,3.15 % w/w,18.28 % w/w,5.47 % w/w,1.67 % w/w,0.29 % w/w,0.78 % w/w,34.17 % w/w,16.30 % w/w,compatible
